Measurements as given in PubChem BioAssay AID328 (DTP/NCI, 2004).
Several values for one entry are separate records, joined by “and”; a condition that tells them apart may be missing. Equal values may be shown once. Toxic doses and inconclusive results are not listed.

System: BDF1 mice, P388 leukemia ip, median survival T/C
Assay: NCI In Vivo Anticancer Drug Screen. Data for tumor model P388 Leukemia (intraperitoneal) in B6D2F1 (BDF1) mice
Settings: endpoint: median survival time, higher = longer survival
Procedure, shortened: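 Compound-treated tumour-bearing mice were compared with vehicle-treated controls. Survival was recorded, and the value is the treated-group measurement divided by the control-group measurement (T/C).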

[1] = dose: 100.0 mg/kg/injection, schedule: Q01DX009 (ip), vehicle: saline with Tween-80
[2] = dose: 200.0 mg/kg/injection, schedule: Q01DX009 (ip), vehicle: saline with Tween-80
[3] = dose: 400.0 mg/kg/injection, schedule: Q04DX003 (ip), vehicle: saline

CCCCc1ccc(N2C(N)=NC(N)=NC2(C)C)cc1
T/C (dose: 6.25 mg/kg/injection, schedule: Q01DX005 (ip), vehicle: Klucel (hydroxypropylcellulose) (HPC)): 111 % of control
T/C (dose: 12.5 mg/kg/injection, schedule: Q01DX005 (ip), vehicle: Klucel (hydroxypropylcellulose) (HPC)): 110 % of control

N#Cc1cccc(C[P+](c2ccccc2)(c2ccccc2)c2ccccc2)c1
T/C (dose: 6.25 mg/kg/injection, schedule: Q01DX009 (ip), vehicle: Klucel (hydroxypropylcellulose) (HPC)): 86 % of control
T/C (dose: 12.5 mg/kg/injection, schedule: Q01DX009 (ip), vehicle: Klucel (hydroxypropylcellulose) (HPC)): 95 % of control
T/C (dose: 17.0 mg/kg/injection, schedule: Q04DX003 (ip), vehicle: Klucel (hydroxypropylcellulose) (HPC)): 95 % of control and 104 % of control
T/C (dose: 25.0 mg/kg/injection, schedule: Q01DX009 (ip), vehicle: Klucel (hydroxypropylcellulose) (HPC)): 104 % of control
T/C (dose: 35.0 mg/kg/injection, schedule: Q01DX009 (ip), vehicle: Klucel (hydroxypropylcellulose) (HPC)): 86 % of control
T/C (dose: 40.0 mg/kg/injection, schedule: Q04DX003 (ip), vehicle: Klucel (hydroxypropylcellulose) (HPC)): 95 % of control and 100 % of control
T/C (dose: 52.5 mg/kg/injection, schedule: Q04DX003 (ip), vehicle: Klucel (hydroxypropylcellulose) (HPC)): 115 % of control

C[C@H]1CN1C1=CC(=O)C(N2C[C@@H]2C)=CC1=O
T/C (dose: 0.03 mg/kg/injection, schedule: Q01DX009 (ip), vehicle: saline): 109 % of control
T/C (dose: 0.12 mg/kg/injection, schedule: Q01DX009 (ip), vehicle: saline): 118 % of control
T/C (dose: 0.5 mg/kg/injection, schedule: Q01DX009 (ip), vehicle: Klucel (hydroxypropylcellulose) (HPC)): 160 % of control
T/C (dose: 0.5 mg/kg/injection, schedule: Q01DX009 (ip), vehicle: saline): 191 % of control
T/C (dose: 1.0 mg/kg/injection, schedule: Q01DX009 (ip), vehicle: Klucel (hydroxypropylcellulose) (HPC)): 160 % of control
T/C (dose: 1.0 mg/kg/injection, schedule: Q01DX009 (ip), vehicle: saline): 220 % of control
T/C (dose: 2.0 mg/kg/injection, schedule: Q01DX009 (ip), vehicle: Klucel (hydroxypropylcellulose) (HPC)): 200 % of control
T/C (dose: 4.0 mg/kg/injection, schedule: Q01DX009 (ip), vehicle: Klucel (hydroxypropylcellulose) (HPC)): 190 % of control

Cc1ccnc(NS(=O)(=O)c2ccc(N=Cc3ccc(N(C)C)cc3)cc2)n1
T/C (dose: 50.0 mg/kg/injection, schedule: Q01DX009 (ip), vehicle: saline with Tween-80): 90 % of control
T/C [1]: 93 % of control
T/C [2]: 90 % of control

CN(Cc1cnc2nc(N)nc(N)c2n1)c1c(Cl)cc(C(=O)NC(CCC(=O)O)C(=O)O)cc1Br (centres undefined)
T/C (dose: 0.13 mg/kg/injection, schedule: Q04DX003 (ip), vehicle: saline): 108 % of control
T/C (dose: 0.19 mg/kg/injection, schedule: Q04DX003 (ip), vehicle: saline): 116 % of control
T/C (dose: 1.1 mg/kg/injection, schedule: Q04DX003 (ip), vehicle: saline): 150 % of control
T/C (dose: 6.3 mg/kg/injection, schedule: Q04DX003 (ip), vehicle: saline): 150 % of control
T/C (dose: 25.0 mg/kg/injection, schedule: Q01DX009 (ip), vehicle: saline): 213 % of control
T/C (dose: 50.0 mg/kg/injection, schedule: Q01DX009 (ip), vehicle: saline): 261 % of control
T/C [1]: 173 % of control
T/C (dose: 100.0 mg/kg/injection, schedule: Q01DX009 (ip), vehicle: saline): 271 % of control
T/C (dose: 115.0 mg/kg/injection, schedule: Q04DX003 (ip), vehicle: saline): 236 % of control
T/C (dose: 175.0 mg/kg/injection, schedule: Q04DX003 (ip), vehicle: saline): 272 % of control
T/C [2]: 182 % of control
T/C (dose: 264.0 mg/kg/injection, schedule: Q04DX003 (ip), vehicle: saline): 254 % of control
T/C [3]: 272 % of control
T/C (dose: 600.0 mg/kg/injection, schedule: Q04DX003 (ip), vehicle: saline): 90 % of control

CCCCCCCC/C=C\CCCCCCCC(=O)OCCCCCCCCCCCCCCC
T/C (dose: 100.0 mg/kg/injection, schedule: Q04DX003 (ip), vehicle: saline): 100 % of control
T/C (dose: 200.0 mg/kg/injection, schedule: Q04DX003 (ip), vehicle: saline): 100 % of control
T/C [3]: 100 % of control

CCCCCCCCCCC(=O)N1CCOCC1
T/C (dose: 25.0 mg/kg/injection, schedule: Q04DX003 (ip), vehicle: saline with Tween-80): 100 % of control
T/C (dose: 50.0 mg/kg/injection, schedule: Q04DX003 (ip), vehicle: saline with Tween-80): 104 % of control
